The CheMixHub ionic liquid set

Test: xn = mol fraction of the nth substance listed

CCCCCCCCCCCC[N+](C)(C)Cc1ccccc1.[Cl-] + CC(C)C[C@H](N)C(=O)O + O
electrical conductivity [S/m], 101 kPa
Settings	293.15 K	298.15 K	303.15 K	308.15 K	313.15 K
x2 = 0.001798, x1 = 0.0001441	0.0541	0.0606	0.0671	0.074	0.0811
x2 = 0.001798, x1 = 0.0001691	0.061	0.068	0.0755	0.0833	0.0918
x2 = 0.001798, x1 = 0.0001949	0.0661	0.0738	0.0821	0.0911	0.101
x2 = 0.001798, x1 = 0.0002208	0.0704	0.0788	0.0879	0.0977	0.108
x2 = 0.001798, x1 = 0.0002443	0.0741	0.0832	0.0928	0.103	0.116
x2 = 0.001798, x1 = 0.0002664	0.0776	0.0872	0.0975	0.109	0.122
x2 = 0.001798, x1 = 0.0002864	0.0807	0.0908	0.102	0.114	0.127
x2 = 0.001798, x1 = 0.0003052	0.0838	0.0941	0.106	0.118	0.132
x2 = 0.001798, x1 = 0.0003239	0.0872	0.0976	0.11	0.123	0.137
x2 = 0.001799, x1 = 5.649e-05	0.0231	0.0258	0.0287	0.0317	0.0346
x2 = 0.001799, x1 = 7.89e-05	0.0314	0.035	0.0389	0.0428	0.0469
x2 = 0.001799, x1 = 9.986e-05	0.0387	0.0435	0.0482	0.0532	0.0582
x2 = 0.001799, x1 = 0.0001206	0.0462	0.0518	0.0574	0.0633	0.0693
x2 = 0.008927, x1 = 0.0002331	0.0722	0.0806	0.0896	0.0994	0.11
x2 = 0.008927, x1 = 0.0002565	0.0758	0.0847	0.0944	0.105	0.117
x2 = 0.008927, x1 = 0.0002782	0.079	0.0883	0.0986	0.11	0.122
x2 = 0.008927, x1 = 0.0002981	0.0818	0.0918	0.102	0.115	0.127
x2 = 0.008927, x1 = 0.0003168	0.0845	0.0949	0.106	0.119	0.132
x2 = 0.008927, x1 = 0.0003371	0.0874	0.0983	0.11	0.123	0.137
x2 = 0.008928, x1 = 0.0001252	0.0463	0.0518	0.0574	0.0633	0.0692
x2 = 0.008928, x1 = 0.0001513	0.0552	0.0616	0.0682	0.075	0.082
x2 = 0.008928, x1 = 0.000179	0.0627	0.0698	0.0773	0.0853	0.0937
x2 = 0.008928, x1 = 0.000207	0.068	0.0757	0.084	0.093	0.103
x2 = 0.008929, x1 = 5.804e-05	0.0225	0.0252	0.028	0.031	0.0339
x2 = 0.008929, x1 = 7.973e-05	0.0302	0.0339	0.0376	0.0414	0.0454
x2 = 0.008929, x1 = 0.0001014	0.038	0.0425	0.0472	0.0519	0.0568

CCCCCCCCCCCC[N+](C)(C)Cc1ccccc1.[Cl-] + CC(C)C[C@H](NC(=O)CN)C(=O)O + O
electrical conductivity [S/m], 101 kPa
Settings	293.15 K	298.15 K	303.15 K	308.15 K	313.15 K
x2 = 0.0008999, x1 = 0.0002654	0.0792	0.0889	0.0993	0.11	0.123
x2 = 0.0008999, x1 = 0.0002843	0.0824	0.0926	0.104	0.116	0.129
x2 = 0.0008999, x1 = 0.0003023	0.0854	0.096	0.107	0.12	0.134
x2 = 0.0008999, x1 = 0.0003252	0.0892	0.101	0.113	0.126	0.14
x2 = 0.0009, x1 = 0.0001699	0.0609	0.068	0.0754	0.0833	0.0918
x2 = 0.0009, x1 = 0.000197	0.0669	0.0747	0.083	0.0919	0.102
x2 = 0.0009, x1 = 0.000222	0.0716	0.0801	0.0893	0.0991	0.11
x2 = 0.0009, x1 = 0.0002447	0.0757	0.0848	0.0946	0.105	0.117
x2 = 0.0009001, x1 = 5.034e-05	0.0218	0.0243	0.0272	0.0302	0.0333
x2 = 0.0009001, x1 = 7.251e-05	0.03	0.0335	0.0373	0.0412	0.0454
x2 = 0.0009001, x1 = 9.522e-05	0.038	0.0425	0.0473	0.0521	0.0573
x2 = 0.0009001, x1 = 0.0001178	0.0458	0.0511	0.0567	0.0625	0.0687
x2 = 0.0009001, x1 = 0.0001434	0.0539	0.0601	0.0666	0.0734	0.0808
x2 = 0.001793, x1 = 4.141e-05	0.0191	0.0215	0.0243	0.0271	0.0301
x2 = 0.001793, x1 = 6.45e-05	0.0271	0.0306	0.0342	0.038	0.0421
x2 = 0.001793, x1 = 8.905e-05	0.0354	0.0397	0.0444	0.0491	0.0542
x2 = 0.001793, x1 = 0.0001112	0.0424	0.0477	0.0531	0.0587	0.0648
x2 = 0.001793, x1 = 0.0001367	0.05	0.056	0.0624	0.069	0.0761
x2 = 0.001793, x1 = 0.0001631	0.0569	0.0637	0.0707	0.0787	0.0879
x2 = 0.001793, x1 = 0.0001904	0.0632	0.0708	0.0791	0.0877	0.0969
x2 = 0.001793, x1 = 0.0002156	0.0683	0.0767	0.0859	0.0955	0.106
x2 = 0.001793, x1 = 0.0002389	0.0727	0.0819	0.0918	0.102	0.114
x2 = 0.001793, x1 = 0.00026	0.0766	0.0863	0.0969	0.108	0.121
x2 = 0.001793, x1 = 0.0002803	0.0802	0.0905	0.102	0.114	0.127
x2 = 0.001793, x1 = 0.0003015	0.0838	0.0947	0.107	0.12	0.133
x2 = 0.001793, x1 = 0.0003211	0.0872	0.0986	0.112	0.125	0.139

CCCC[N+](CCCC)(CCCC)CCCC.[Cl-] + CC(C)[C@H](N)C(=O)O
100 kPa
Settings	electrical conductivity, 313.15 K [S/m]	electrical conductivity, 323.15 K [S/m]	electrical conductivity, 333.15 K [S/m]	electrical conductivity, 343.15 K [S/m]	electrical conductivity, 353.15 K [S/m]	viscosity, 313.15 K [mPa·s]	viscosity, 323.15 K [mPa·s]	viscosity, 333.15 K [mPa·s]	viscosity, 343.15 K [mPa·s]	viscosity, 353.15 K [mPa·s]
x1 = 0.9	0.041	0.059	0.082	0.0989	0.123	800	460	258	145	82
x1 = 0.9091	0.029	0.041	0.055	0.0751	0.095	900	510	256	146	82
x1 = 0.9167	0.038	0.05	0.07	0.0901	0.116	587	313	196	105	63
